{"source": "patent US12472193B2", "about": "“Methods and compositions for treating and preventing respiratory related diseases and conditions with xylitol-headgroup lipid analogs” (National Jewish Health, priority 2017, dated 2025)", "key": {"[1]": {"experimental": "18:1 DEPX was prepared as liposomes so that 500 μg of lipid was delivered in a 50 μL volume. 6-week old female BALB/C mice were purchased from Jackson laboratories and divided into groups of 5. Each group was inoculated with 500 μg of 18:1 DEPX by intranasal inoculation. Groups of 5 mice were sacrificed and lavaged at the following time points: 0 hours, 3 hours, 6 hours, 18 hours and 24 hours. Lipids were extracted from mice BALF by Bligh-Dyer (“A rapid method of total lipid extraction and purification.,” Can. J. Biochem. Physiol., vol. 37, no. 8, pp. 911-7, August 1959), and quantified by phosphorus analysis. 150 nmol of lipid extracted from each mouse was separated by lipid class utilizing the Touchstone solvent system (refer to methods) and thin layer chromatography. 0.1% ANSA and UV light was used to visualize lipids from the thin layer chromatogram. Individual xylitol lipid bands were cut out from the silica and quantified by phosphorus analysis.\nTo determine how quickly 18:1 DEPX turns over in the mouse lung, female BALB/C mice that were 6-8 weeks old were inoculated with 500 μg of lipid by intranasal delivery in a 50 μL volume. Mice were sacrificed at time periods of, 0 hours, 3 hours, 6 hours, 18 hours and 24 hours following lipid delivery and bronchoalveolar lavage fluid (BALF) was collected. Lipids were extracted from BALF by the Bligh-Dyer method and total lipid extracts were quantified by phosphorus analysis (G. Rouser, et al., “Quantitative analysis of phospholipids by thin-layer chromatography and phosphorus analysis of spots.,” Lipids, vol. 1, no. 1, pp. 85-6, January 1966). To separate the various lipid classes present in BALF, thin layer chromatography on a Merck Silica 60 glass plate with a touchstone solvent system was utilized. The silica plate was scored in lanes according to number of samples, 150 nmol of total lipid was spotted onto each lane and solvent was developed for 90 minutes. The plate was air dried and sprayed with 0.1% ANSA-water then exposed to UV light to reveal migration of lipids on the plate. The spots corresponding to xylitol lipids were cut out and quantified by phosphorous analysis.\nBecause toxicity of the synthetic phospholipid, 18:1 DEPX, is unknown lower levels of lipid were delivered to mice to determine if the diether lipid persists in the mouse lung after 24 hours. The previous experiment was repeated with 250 μg, 150 μg and 75 μg 18:1 DEPX delivered to mice. 250 μg was used as a starting point for mice sacrificed at 0 hours following lipid delivery. Subsequently groups of mice given 250 μg, 150 μg and 75 μg of 18:1 DEPX were sacrificed 24 hours following intranasal delivery of lipid. Mouse lungs were lavaged 2 times with 1 mL PBS. Total lipids were extracted by the Bligh-Dyer method from BALF and separated on a Merck Silica 60 glass plate using a touchstone solvent system for separation of lipids by headgroup. Xylitol lipid spots were excised from the silica and quantified by phosphorus assay."}, "[2]": {"experiment": "Inflammatory burden caused by intranasal inoculation of 18:1 DEPX", "format": "in vivo, mouse", "experimental": "Doses of 18:1 DEPX ranging from 35 μg to 1 mg were administered to mice by intranasal inoculation. The inflammatory burden caused by delivery of the synthetic lipid to the mouse lung was assessed 24 hours following inoculation. At 24 hours, mice were sacrificed and BALF was collected. The cells in BALF were quantified and cell populations within the lavage fluid were assessed by staining and cytospin analysis.\nIn order to determine the dose of 18:1 DEPX that is used in RSV challenge experiments, the toxic effects of the lipid were studied by the inflammatory response it elicits following delivery. A range of doses of 18:1 DEPX, from 35 μg to 1 mg, was instilled intranasally to 6-8 week old female BALB/C mice. Mice were sacrificed 24 hours following lipid delivery to best assess immediate inflammatory response. Mouse lungs were lavaged with 1 mL PBS and BALF was assessed for total inflammatory cellular infiltrates quantitatively and further characterized for cell populations by cytospin.\nFollowing quantification of cells in 1 mL BALF, cells were subjected to cytospin and fixed and stained on microscope slides. 500 cells were counted from each slide and the numbers of macrophages, neutrophils and lymphocytes recorded. Delivery of 18:1 DEPX to mice elicits an inflammatory response determined by the influx of neutrophils found in lavage. […] Therefore, a dose of 100 μg 18:1 DEPX was chosen to perform RSV challenge experiments."}}, "note": "Where two headings read alike, the source gives them in different places."}
{"smiles": "CCCCCCCCC=CCCCCCCCCOCC(COP(=O)(O)OCC(O)C(O)C(O)CO)OCCCCCCCCC=CCCCCCCCC", "note": "(mixture of isomers) [18:1 DEPX, sn-1-O-octadecenyl, sn-2-O-octadecenyl sn-3 glycerol phosphoxylitol]", "values": [{"measurement": "xylitol lipid recovered from BALF", "setting": "[1]; 75 μg intranasal, 24 hours", "result": 10, "unit": "µg"}, {"measurement": "xylitol lipid recovered from BALF", "setting": "[1]; 150 μg intranasal, 24 hours", "result": 15, "unit": "µg"}, {"measurement": "xylitol lipid recovered from BALF", "setting": "[1]; 250 μg intranasal, 0 hours", "result": "Around 40 μg"}, {"measurement": "xylitol lipid recovered from BALF", "setting": "[1]; 250 μg intranasal, 24 hours", "result": "around 20 μg"}, {"measurement": "18:1 DEPX detected in recovered lavage", "setting": "[1]; 500 μg intranasal, 24 hours", "result": "about 20 nmol"}, {"measurement": "18:1 DEPX in 150 nmol of total BALF lipid loaded", "setting": "[1]; 500 μg intranasal, time zero", "result": "approximately 42 nmol"}, {"measurement": "half-life in the mouse lung", "setting": "[1]; intranasal", "result": "around 24 hours"}, {"measurement": "starting material recovered after 24 hours", "setting": "[1]; mice", "result": 50, "unit": "%"}, {"measurement": "BALF cell counts compared to PBS control", "setting": "[2]; 35 μg, 75 μg, 150 μg and 250 μg intranasal, 24 hours", "result": "did not have cell counts distinguishable from the control"}, {"measurement": "neutrophils in BALF (cytospin)", "setting": "[2]; 75 μg intranasal, 24 hours", "result": "significant numbers of neutrophils"}, {"measurement": "BALF cell counts compared to PBS control", "setting": "[2]; 300 μg, 500 μg and 1 mg intranasal, 24 hours", "result": "significantly higher cell counts"}, {"measurement": "mortality", "setting": "[2]; 1 mg intranasal", "result": "One mouse in the group that received 1 mg of 18:1 DEPX died"}, {"measurement": "dose giving significant cellular infiltrates compared to control mice", "setting": "[2]; intranasal, 24 hours", "result": "≥ 300", "unit": "µg"}, {"measurement": "doses accompanied with significant cellular infiltrates compared with PBS control", "setting": "[2]; intranasal, 24 hours", "result": "≥ 300", "unit": "µg"}]}
